Like-named read-outs stand apart in the source and are kept apart here.
Assays:
[1] = target: T1, LPX (Bos taurus, UniProt P80025); assay: LPX iodide ion oxidation activity after incubation and dilution; assay type: biochemical, bovine; settings: for remaining activity at 100 µM: 100 μM DMMBI, 100 s at 25° C., 200-fold dilution, n=4, read-out: Rate (% of control)
T1 construct: purchased Sigma Chemical Company
Source text: (§1) Materials used in the examples below were obtained from the following sources. Bovine LPX, bovine liver catalase, glucose oxidase, 30% hydrogen peroxide, glucose, guaiacol, ABTS and deuterium oxide were purchased from Sigma Chemical Company. Selenium dioxide, MBI ^13 CH3 I and PBA were purchased from Aldrich Chemical Company and PBA was purified as previously described by Fieset et al., Reagents for Organic Synthesis, Vol. I, pp.135-139, John Wiley and Sons, N.Y. (1967). LPX purity was checked by PAGE, as described by Doerge, D.R., et al. in, Biochem. Pharmacol., Vol.36, pp.972-974 (1986). TPX was purified from hog thyroids obtained from a local slaughterhouse by published procedures. Doerge & Takazowa, Chemical Research in Toxicology, Vol. 3, pp. 98-101 (1990). TPX purity was determined by LC and its concentration determined spectophotometrically. Hydroperoxide concentrations were determined by iodometric titration, as described by Kolthoff, et al., in "Quantitative Chemical Analysis", Macmillan, London, pp.842-860 (1969). MMBI, and BI were synthesized by published procedures as described by Doerge, D.R., Biochem, Vol. 27, pp. 3697-3700 (1988) and were recrystallized from aqueous ethanol. MeBI was purified by distillation and DMeBI^+ was synthesized and purified by recrystallization from ethyl acetate/methanol. 1-^13 C-MMBI was synthesized from ^13 CH3 I according to the procedure disclosed by Doerge, D.R., in, J. Lab. Comp. and Radiopharm., Vol.25, pp.985-990 (1988). PPHP and PPA were prepared, purified and analyzed as previously described by Doerge, Biochem, Vol.27, p.11 (1988). The methyl ester of 1-methyl-benzimidazole-2-sulfinic acid was prepared by addition of hydrogen peroxide (5 equivalents of a 10 M solution) to MMBI (0.1 M) in methanol. The products, MeBI and the ester, were obtained following preparative TLC on silica (Uniplate, Analtech Co., Newark, DL) using 5% methanol/chloroform as eluant.
The following experiment was performed to determine the effect of DMMBI oxidation on LPX activity. LPX (0.1 μM, final concentration) was incubated with hydrogen peroxide (100 μM), iodide ion (5 mM) and DMMBI (100 μM), as indicated in Table 2. After a 100 second incubation at 25° C., an aliquot was diluted 200-fold and the iodide ion oxidation activity determined. Values shown in Table 2, are averages +/- standard deviations (n=4) of the percentage relative to untreated LPX.

[2] = target: T2, TPX (Sus scrofa, UniProt P09933); assay: TPX/hydrogen peroxide-catalyzed oxidation of ABTS and guaiacol; assay type: biochemical, hog
T2 sequence (P09933 15-926): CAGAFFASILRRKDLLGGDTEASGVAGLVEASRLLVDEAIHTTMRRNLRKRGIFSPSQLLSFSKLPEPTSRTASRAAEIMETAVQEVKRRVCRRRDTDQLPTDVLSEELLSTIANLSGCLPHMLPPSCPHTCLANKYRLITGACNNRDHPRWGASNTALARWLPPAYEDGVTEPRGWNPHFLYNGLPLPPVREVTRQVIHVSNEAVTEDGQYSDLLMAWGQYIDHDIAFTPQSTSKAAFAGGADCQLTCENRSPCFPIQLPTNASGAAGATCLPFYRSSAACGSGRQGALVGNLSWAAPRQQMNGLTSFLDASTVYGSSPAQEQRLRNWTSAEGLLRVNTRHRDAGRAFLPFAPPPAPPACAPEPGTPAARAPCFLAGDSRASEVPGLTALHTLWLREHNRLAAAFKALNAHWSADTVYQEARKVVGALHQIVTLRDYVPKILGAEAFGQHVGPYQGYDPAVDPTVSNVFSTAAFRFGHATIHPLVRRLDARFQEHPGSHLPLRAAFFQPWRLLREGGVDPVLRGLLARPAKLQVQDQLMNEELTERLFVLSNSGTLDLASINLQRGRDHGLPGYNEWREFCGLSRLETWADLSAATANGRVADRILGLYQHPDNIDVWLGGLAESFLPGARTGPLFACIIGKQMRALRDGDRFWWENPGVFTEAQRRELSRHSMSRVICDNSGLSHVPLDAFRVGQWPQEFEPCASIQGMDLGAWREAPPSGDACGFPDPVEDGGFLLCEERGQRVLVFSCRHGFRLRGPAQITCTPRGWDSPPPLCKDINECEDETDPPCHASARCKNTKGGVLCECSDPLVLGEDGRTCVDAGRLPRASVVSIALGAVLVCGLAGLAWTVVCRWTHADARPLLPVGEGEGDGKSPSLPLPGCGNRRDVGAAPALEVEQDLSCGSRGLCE
Source text: as §1, with “MeBI was purified by distillation and DMeBI^+ was synthesized and purified by recrystallization from ethyl acetate/methanol. 1-^13 C-MMBI was synthesized from ^13 CH3 I according to the procedure disclosed by Doerge, D.R., in, J. Lab. Comp. and Radiopharm., Vol.25, pp.985-990 (1988).” left out, “The methyl ester of 1-methyl-benzimidazole-2-sulfinic acid was prepared by addition of hydrogen peroxide (5 equivalents of a 10 M solution) to MMBI (0.1 M) in methanol. The products, MeBI and the ester, were obtained following preparative TLC on silica (Uniplate, Analtech Co., Newark, DL) using 5% methanol/chloroform as eluant.” left out

[3] = target: T1, LPX; assay: LPX-mediated covalent binding of labelled thiocarbamides to LPX; set-up: species or system bovine; settings: +H2O2 vs. +H2O2 +KI; 14C- and 35S-labelled
Source text: as §1
LPX-mediated covalent binding of ^14 C- and ^35 S-labelled thiocarbamides to LPX under iodide-dependent and -independent conditions was measured.

[4] = tested on: LPX and TPX; assay: suicide inhibition of peroxidases (summary statements); assay type: biochemical
[5] = target: T2, TPX; assay: TPX inactivation; assay type: biochemical, hog
Source text: as §1
DMMBI was synthesized according to a published method. Duffin et al., J. Chem. Soc., Part II, pp.364-365 (1956). Samples including TPX, H2 O2, and I^- were incubated with and without DMMBI. Triiodide formation was observed spectrophotometrically with respect to time.

## Cn1c(=S)n(C)c2ccccc21 [DMMBI, 1,3-dimethylbenzimidazole-2-thione]
[1]; LPX + DMMBI
  remaining activity at 100 µM: 100 ± 4%
[1]; LPX + H2O2 + DMMBI + I-
  remaining activity at 100 µM: 107 ± 6%
[1]; LPX + H2O2 + DMMBI
  remaining activity at 100 µM: 104 ± 6%
[1]; LPX/hydrogen peroxide, absence of iodide ion
  loss of enzymatic activity: did not cause any loss of enzymatic activity
[1]; iodide ion present, DMMBI converted to DMeBI+, 1/200 dilution
  loss of enzymatic activity: no loss of enzymatic activity was detected
[2]
  effect on oxidation of ABTS and guaiacol: does not affect LPX or TPX/hydrogen peroxide-catalyzed oxidation of the substrates ABTS and guaiacol
[3]
  covalent binding to LPX: no binding over unstimulated controls
[4]; alternate substrate mechanism
  selectivity for iodide ion oxidation: block only reactions involving iodide ion oxidation
[4]; summary of own examples
  suicide inhibition: not suicide inhibitors
[5]; 100 μM, 1 minute incubation
  TPX inactivation: does not inactivate TPX
[5]; presence of hydrogen peroxide
  TPX inactivation: does not inactivate LPX or TPX

Source: US5371102A, “Compositions and methods of inhibiting thyroid activity” (priority 1993, dated 1994)
